Test [1] concerns T1, BAM complex.
T1 construct: made in house; host or cells: E. coli BL21(DE3), strain obtained from Xinmiao Fu, Fujian Normal University
The test is described as follows: SPR binding kinetics to BAM complex. Set-up: species or system E. coli. The settings on record: Biacore T200, 25 °C, multi-cycle kinetics, 1:1 model. The method, then: Expression and purification of the BAM complex
The E. coli BL21(DE3) cells containing all five Bam proteins (BamA, B, C, D, and E) was obtained from Xinmiao Fu of Fujian Normal University and used for expression and purification.
The BL21(DE3) cells plated onto LB-ampicillin agar plates and incubated overnight at 37 °C. A 20 mL culture incubated overnight at 37°C was prepared from a single colony in LB medium supplemented with 100 mg/L of ampicillin. The strain was inoculated into fresh LB liquid medium according to the inoculation ratio of 1:100 and incubated at 37 ℃ for about 4 hours until the OD600 reached about 1.0. The temperature of the incubator was set to 20 ℃ and then cultured for 1 hour, and 200 uM IPTG was added to induce overnight. First of all, the induced cells were collected by freezing centrifuge 3000 rpm for 30 min, and the collected cells were resuspended with Buffer 1 (20 mM Tris-HCl, pH 8.0, 150 mM NaCl), and then crushed low temperature and pressure with a high pressure crusher. The broken cells were centrifuged 1 hour at 4 °C for18000 rpm by high speed centrifuge. After centrifugation at 4 °C 18000 rpm for 1 hour, and the supernatant was discarded and the cell membrane was collected. The collected cell membranes were resuscitated with Buffer 2 (20 mM Tris-HCl, pH 8.0, 300 mM NaCl, 1% DDM) and then dissolved at 4 °C for 2 hours. After dissolving the membrane, the supernatant was collected by high speed centrifuge at 18,000 rpm. The 20 mM imidazole was added to the supernatant and incubated with a 2 mL Ni-NTA sefinoseTM resin column for 1 hour. After incubation, 10 column volumes were washed with Buffer 3 (20 mM Tris-HCl, pH 8.0, 300 mM NaCl, 0.025%DDM) containing 30 mM and 50 mM imidazole respectively. Then, the protein was eluted with Buffer 3 containing 200 mM imidazole, and the eluted protein was collected. Finally, using the 20-fold molar excess of EZ-LinkTM Sulfo-NHS-LC-LC-Biotin for BAM complex, and incubate reaction on ice for 2 hours. After the protein labeling is completed, dialysis is used to purify the labeled protein to remove the remaining unreacted and hydrolyzed biotin reagents. […]
The mobile phase was 0.1% TFA aqueous solution / acetonitrile containing 0.1%
TFA. The purified macrocyclic peptides and fluorinated macrocyclic peptides were confirmed by electrospray ionization mass spectrometry (ESI-MS).
Binding kinetics analysis by SPR
The binding kinetics between the selected peptides and EphA2 were tested by SPR using a Biacore T200 instrument (GE Healthcare) at 25 °C. In this study, the running buffer was HBS-EP+ buffer (10 mM HEPES-KOH (pH 7.4), 150 mM NaCl, 50 μM EDTA, 0.05% Tween 20) containing 0.1% DMSO. Biotin capture kit (GE Healthcare) was used to fix human EphA2 on the surface of Biacore CAP chip with a density of 1050 RU. Five different concentrations of peptides were injected at the flow rate of 30 μL/min, and their kinetic constants were determined. The binding kinetic was quantified by single cycle kinetic method. Finally, the binding sensorgrams was analyzed by Biacore evaluation software, and the standard 1:1 model was used for fitting.
The binding kinetics between the selected peptides and BAM complex were tested by SPR using […]
a Biacore T200 instrument (GE Healthcare) at 25 °C. In this study, the running buffer was HBS-EP+ […]
0.1% DMSO. The Series S Sensor Chip CM5 was used to fix BAM complex on the surface of Biacore CM5 chip with a density of 9500 RU. The binding mode was multi-cycle kinetics (one sample concentration one cycle). Finally, the binding sensorgrams was analyzed by Biacore evaluation software, and the standard 1:1 model was used for fitting.
Preliminary evaluation of the antibacterial activity of macrocyclic peptides against E. coli […]
Remove the previously preserved E. coli W3110 cells from the -80 °C refrigerator, scrape a little, inoculate it into 1 mL LB liquid medium, and culture overnight in 37°C shaker. The strain was […]

For test [2], the target named is human EphA2 (Homo sapiens, UniProt P29317). Put plainly: SPR binding kinetics to EphA2. The conditions noted are these: Biacore T200, 25 °C, HBS-EP+ buffer pH 7.4 with 0.1% DMSO, biotinylated human EphA2 on CAP chip (1050 RU), single cycle kinetics, five concentrations, 1:1 model. The method, then: The cDNAs was detected by QuantStudio™ real-time PCR system (Applied Biosystems), then PCR was recovered by phusion® high-fidelity DNA polymerase and transcribed in vitro to construct a mRNA library rich in BAM complex(or EphA2) binding sequences to prepare for the next round of screening. Starting with the second round of screening, six more negative selections were added before positive selections to remove unwanted beads binders. Finally, the cDNAs recovered in the sixth(or fifth) round was deep sequencing using NovaSeq 6000 system (Ilumina).
human EphA2, sequence (P29317 24-976): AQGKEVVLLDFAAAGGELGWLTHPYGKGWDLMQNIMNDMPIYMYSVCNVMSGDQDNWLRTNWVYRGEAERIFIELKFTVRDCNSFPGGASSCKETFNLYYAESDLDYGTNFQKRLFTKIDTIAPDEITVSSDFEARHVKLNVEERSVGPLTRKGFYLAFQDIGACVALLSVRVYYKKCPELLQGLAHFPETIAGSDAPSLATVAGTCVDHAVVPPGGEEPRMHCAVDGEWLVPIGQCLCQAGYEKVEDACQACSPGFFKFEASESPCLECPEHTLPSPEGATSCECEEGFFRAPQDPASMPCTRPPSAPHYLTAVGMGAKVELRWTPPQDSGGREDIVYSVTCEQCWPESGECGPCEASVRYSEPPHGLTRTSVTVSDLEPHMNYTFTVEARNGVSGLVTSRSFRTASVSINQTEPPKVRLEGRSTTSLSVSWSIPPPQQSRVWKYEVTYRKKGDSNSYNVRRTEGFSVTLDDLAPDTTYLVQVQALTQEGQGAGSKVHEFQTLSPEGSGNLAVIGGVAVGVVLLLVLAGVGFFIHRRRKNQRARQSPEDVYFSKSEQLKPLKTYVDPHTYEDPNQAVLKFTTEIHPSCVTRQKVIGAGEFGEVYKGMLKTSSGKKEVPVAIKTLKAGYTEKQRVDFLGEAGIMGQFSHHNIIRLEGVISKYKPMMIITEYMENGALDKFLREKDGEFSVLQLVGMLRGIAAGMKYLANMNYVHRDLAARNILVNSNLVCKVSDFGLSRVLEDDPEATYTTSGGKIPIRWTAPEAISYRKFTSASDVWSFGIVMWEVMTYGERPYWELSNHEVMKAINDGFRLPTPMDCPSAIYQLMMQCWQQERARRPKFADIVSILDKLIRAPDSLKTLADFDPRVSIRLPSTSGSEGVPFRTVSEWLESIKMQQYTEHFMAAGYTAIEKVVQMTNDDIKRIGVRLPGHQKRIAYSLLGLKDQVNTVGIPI
General procedures for solid-phase synthesis of selected peptides
In this study, macrocyclic peptides and fluorinated macrocyclic peptides were synthesized by standard Fmoc solid phase peptide synthesis (SPPS). Firstly, a mixture (0.3 mmol Fmoc-Gly-OH and 0.3 mmol HOBT dissolved in 8 mL DMF and 0.5 mL DIC) was prepared, and 0.5 g Rink Amide MBHA resin was added to the mixture, and then reacted under nitrogen protection for 1.5 h. The resin was filtered and washed at least three times with DMF and DCM, and a deprotective agent (DMF solution containing 20% piperidine) was added to remove the Fmoc protective group. Then a new mixture (0.9 mmol Fmoc-AA-OH and 0.9 mmol HOBT dissolved in 10 mL DMF and 1 mL DIC) was prepared and condensation reaction was carried out under nitrogen protection for 1 hour.
By repeating the steps of deprotection and condensation reaction, the desired peptide was finally obtained, and the bromoacetyl group was connected to the N-terminal free α-amino group of the resin peptide. […]
The binding kinetics between the selected peptides and EphA2 were tested by SPR using a Biacore T200 instrument (GE Healthcare) at 25 °C. […] Five different concentrations of peptides were injected at the flow rate of 30 μL/min, and their kinetic constants were determined. The binding kinetic was quantified by single cycle kinetic method. Finally, the binding sensorgrams was analyzed by Biacore evaluation software, and the standard 1:1 model was used for fitting. […]

Where a SMILES comes first, the peptide text is derived from it. Bridges are numbered along the chain shown (N, C = ends). [ ]: non-standard residue; d: D form. Phe(3,4-F2) = N[C@@H](Cc1ccc(F)c(F)c1)C(=O)O; dPhe(4-F) = N[C@H](Cc1ccc(F)cc1)C(=O)O

T1 sequence (P0A903 25-344): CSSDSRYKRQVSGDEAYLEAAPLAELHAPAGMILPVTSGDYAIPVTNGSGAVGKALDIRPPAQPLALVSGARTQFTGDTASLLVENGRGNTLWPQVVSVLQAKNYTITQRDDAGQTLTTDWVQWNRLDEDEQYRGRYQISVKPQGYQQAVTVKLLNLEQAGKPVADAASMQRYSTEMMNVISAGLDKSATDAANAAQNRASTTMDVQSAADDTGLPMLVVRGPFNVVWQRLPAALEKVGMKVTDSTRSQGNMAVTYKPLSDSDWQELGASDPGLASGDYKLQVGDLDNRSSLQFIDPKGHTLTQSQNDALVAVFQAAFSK
T1 sequence (P0AC02 20-245, further chain): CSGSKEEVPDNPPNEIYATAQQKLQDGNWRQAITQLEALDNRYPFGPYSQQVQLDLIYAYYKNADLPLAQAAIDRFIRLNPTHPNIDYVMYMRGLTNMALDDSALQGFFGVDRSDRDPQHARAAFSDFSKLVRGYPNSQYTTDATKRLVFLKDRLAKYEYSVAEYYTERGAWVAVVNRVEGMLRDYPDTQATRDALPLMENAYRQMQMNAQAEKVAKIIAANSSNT
T1 sequence (P0A937 20-113, further chain): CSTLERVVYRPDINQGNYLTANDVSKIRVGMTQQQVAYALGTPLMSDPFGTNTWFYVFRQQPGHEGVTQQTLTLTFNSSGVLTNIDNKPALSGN
T1 sequence (P77774 20-392, further chain): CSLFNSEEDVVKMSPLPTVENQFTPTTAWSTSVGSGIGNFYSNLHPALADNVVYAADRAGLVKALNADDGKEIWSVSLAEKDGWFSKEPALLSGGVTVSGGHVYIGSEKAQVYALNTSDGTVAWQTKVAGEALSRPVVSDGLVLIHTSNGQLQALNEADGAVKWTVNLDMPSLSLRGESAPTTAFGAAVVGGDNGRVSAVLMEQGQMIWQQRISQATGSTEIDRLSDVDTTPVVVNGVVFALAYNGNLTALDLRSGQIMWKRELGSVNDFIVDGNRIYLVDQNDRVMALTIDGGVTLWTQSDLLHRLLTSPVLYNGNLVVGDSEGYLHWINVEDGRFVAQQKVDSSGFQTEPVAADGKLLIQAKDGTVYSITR

Turning to `CC[C@H](C)[C@@H]1NC(=O)[C@H](CC(C)C)NC(=O)[C@@H](Cc2ccc(O)cc2)NC(=O)CSC[C@@H](C(=O)NCC(N)=O)NC(=O)[C@H](C(C)C)NC(=O)[C@H](CCCNC(=N)N)NC(=O)[C@H](Cc2ccccc2)NC(=O)[C@@H]2CCCN2C(=O)[C@H](Cc2c[nH]cn2)NC(=O)[C@H](CO)NC(=O)[C@H](CCCNC(=N)N)NC(=O)[C@H](CO)NC(=O)[C@H](Cc2ccc(O)cc2)NC(=O)[C@H](Cc2c[nH]c3ccccc23)NC1=O` [BAM-D1] ({CH2CO}-[dY]LIWYSRSHPFRVCG-NH2; thioether N-14), the “ka for BAM complex” value in test [1] (CM5 chip) was 0.43 ×10 4 M-1s-1. Binding in test [1] (HBS-EP+ buffer pH 7.4 with 0.1% DMSO, BAM complex on CM5 chip (9500 RU)) was put at a Kd of 763 nM.
For the molecule `CC[C@H](C)[C@@H]1NC(=O)[C@@H](Cc2ccc(F)cc2)NC(=O)CSC[C@@H](C(=O)NCC(N)=O)NC(=O)[C@H](Cc2ccc(O)cc2)NC(=O)[C@H](CCCNC(=N)N)NC(=O)[C@H](CCC(N)=O)NC(=O)[C@H]([C@@H](C)O)NC(=O)[C@H]([C@@H](C)O)NC(=O)[C@H](Cc2ccc(F)c(F)c2)NC(=O)[C@H](CCCCN)NC(=O)[C@H](CC(C)C)NC(=O)[C@H](C)NC(=O)[C@H](Cc2ccc(O)cc2)NC(=O)[C@H](Cc2c[nH]c3ccccc23)NC1=O` [Ep-F1] ({CH2CO}-[dPhe(4-F)]IWYALK[Phe(3,4-F2)]TTQRYCG-NH2; thioether N-14), the affinity in test [2], expressed as Kd, was 9.9 nM.
Same read-out and setting: the figure for `CC(C)C[C@@H]1NC(=O)[C@@H]2CCCN2C(=O)[C@H](Cc2c[nH]cn2)NC(=O)[C@@H](Cc2ccc(F)cc2)NC(=O)CSC[C@@H](C(=O)N[C@@H](Cc2c[nH]c3ccccc23)C(=O)N[C@H](C(=O)N[C@@H](CCCCN)C(=O)N[C@@H](CO)C(=O)NCC(N)=O)[C@@H](C)O)NC(=O)CNC(=O)[C@H](Cc2ccc(F)c(F)c2)NC(=O)[C@H](CC(N)=O)NC(=O)[C@H](Cc2ccc(O)cc2)NC1=O` [Ep-F2] ({CH2CO}-[dPhe(4-F)]HPLYN[Phe(3,4-F2)]GCWTKSG-NH2; thioether N-9) is 0.25 nM; for “Ep-F2-M2: variant of Ep-F2 measured by SPR (Fig. S4) to examine the role of fluorination (FHPLYNFGCWTKSG; Parent Ep-F2 is printed as Ac-(4-F-DPhe)HPLYN(2F-LPhe)GCWTKSG-NH2)” it is 0.29 nM.

These data come from publication PMC11310889, “Ribosomal translation of fluorinated non-canonical amino acids for de novo biologically active fluorinated macrocyclic peptides” (Chemical Science, 2024).
